This is an account of results in ChEMBL document CHEMBL1151254, “A new anti-HIV alkaloid, drymaritin, and a new C-glycoside flavonoid, diandraflavone, from Drymaria diandra” (J Nat Prod, 2004).

Broadly, the EC50 is the concentration at which the effect is half-maximal. Read a low EC50 as greater potency. What is called IC50 is the concentration that inhibits the measured activity by half. A high value points to weaker potency.

Molecules are shown by their SMILES. In brackets after ≈: the same amount, converted by molar mass.

In test [1] the test system is Human immunodeficiency virus. Nature of the test: Antiviral activity against HIV in human H9 cells. It counts as functional, organism-based. The note with it: Human immunodeficiency virus 1, H9.
The subject of another test is Neutrophil. Nature of the test: Inhibition of fMLP/CB-stimulated superoxide anion generation in human neutrophils. It is filed as functional, cell-based.

Take `COc1cnc2ccc(=O)n3c4ccccc4c1c23`: the midpoint of the response in test [1], the EC50, lay at 20.6 µg/mL (≈ 82.3 µM). With `COc1cc2oc(-c3ccc([C@@H]4O[C@H](CO)[C@@H](O)[C@H](O)[C@H]4O)cc3)cc(=O)c2c(O)c1[C@H]1C[C@@H](O)[C@@H](O)[C@@H](C)O1` [DIANDRAFLAVONE A], the IC50 in the test on Neutrophil turned out to be 10 µg/mL (≈ 17.8 µM).

In test [1], `COc1cn2c3ccccc3c3ccnc(c1=O)c32` [DRYMARITIN] yielded an EC50 of 0.699 µg/mL (≈ 2.79 µM).
